Laboratory results as given in ChEMBL document CHEMBL3045562, “4-Pyridyl carbonyl compounds as thrips lures: effectiveness for Western flower thrips in y-tube bioassays” (2008).
Active and inactive are the calls of the source. The calls are words filed in the database; no cut-off is given here.

Tests used:
Assay type in all cases: functional
[1] = tested on: Frankliniella occidentalis; test: Thrips luring activity against female Frankliniella occidentalis (western flower thrips) assessed as induction of thrips to walk up odor-laden arm of Y-tube olfactometer by Y-tube olfactometer bioassay
[2] = tested on: Frankliniella occidentalis; test: Thrips luring activity against female Frankliniella occidentalis (western flower thrips) assessed as trapping of thrips using compound treated yellow sticky traps relative to untreated control under commercial greenhouse
[3] = tested on: Frankliniella occidentalis; test: Thrips luring activity against female Frankliniella occidentalis (western flower thrips) assessed as induction of thrips to walk up odor-laden arm of Y-tube olfactometer at 1 uL by Y-tube olfactometer bioassay
[4] = tested on: Frankliniella occidentalis; test: Thrips luring activity against female Frankliniella occidentalis (western flower thrips) assessed as induction of thrips to walk up odor-laden arm of Y-tube olfactometer at 5 x 10^-4 uL by Y-tube olfactometer bioassay
[5] = tested on: Frankliniella occidentalis; test: Thrips luring activity against female Frankliniella occidentalis (western flower thrips) assessed as induction of thrips to walk up odor-laden arm of Y-tube olfactometer at 5 x 10^-1 uL by Y-tube olfactometer bioassay
[6] = tested on: Frankliniella occidentalis; test: Thrips luring activity against female Frankliniella occidentalis (western flower thrips) assessed as induction of thrips to walk up odor-laden arm of Y-tube olfactometer at 5 x 10^-3 uL by Y-tube olfactometer bioassay
[7] = tested on: Frankliniella occidentalis; test: Thrips luring activity against female Frankliniella occidentalis (western flower thrips) assessed as induction of thrips to walk up odor-laden arm of Y-tube olfactometer at 1 x 10^-2 uL by Y-tube olfactometer bioassay
[8] = tested on: Frankliniella occidentalis; test: Thrips luring activity against female Frankliniella occidentalis (western flower thrips) assessed as induction of thrips to walk up odor-laden arm of Y-tube olfactometer at 1 x 10^-1 uL by Y-tube olfactometer bioassay
[9] = tested on: Frankliniella occidentalis; test: Thrips luring activity against female Frankliniella occidentalis (western flower thrips) assessed as induction of thrips to walk up odor-laden arm of Y-tube olfactometer at 1 x 10^-5 uL by Y-tube olfactometer bioassay
[10] = tested on: Frankliniella occidentalis; test: Thrips luring activity against female Frankliniella occidentalis (western flower thrips) assessed as induction of thrips to walk up odor-laden arm of Y-tube olfactometer at 1 x 10^-3 uL by Y-tube olfactometer bioassay
Thrips obscuratus = test: Thrips luring activity against female New Zealand Thrips obscuratus (flower thrips) assessed as induction of thrips to walk up odor-laden arm of Y-tube olfactometer by Y-tube olfactometer bioassay

With CCCOC(=O)c1ccncc1 [N-PROPYL ISONICOTINATE] the MAD [1] was 1 ×10⁻³ microL.
In the case of CC(=O)c1ccncc1 [METHYL 4-PYRIDYLKETONE], the “fold change (FC)” value [2] is reported as 4.5.
Work on CC(C)=CCOC(=O)c1ccncc1 [ISO-PENTENYL ISONICOTINATE] yielded an Activity [3] of 49%.
With COC(=O)c1ccncc1 [METHYL ISONICOTINATE] the MAD [1] was 1 ×10⁻⁶ microL and the “fold change (FC)” value [2] was 14.
Molecule c1cc(C2OCCO2)ccn1 [PYRIDINE, 4-(1,3-DIOXALAN-2-YL)] has an Activity [4] of 48%, an Activity [5] of 61% and an Activity [6] of 63%.
CCOC(=O)C1CCNCC1 [ETHYL ISONIPECOTATE] showed an Activity [7] of 49% and an Activity [3] of 63%.
For CCCCC(=O)OC1CC2CCC1(C)C2(C)C (centres undefined), the Activity [1] was “Active”.
In the case of CCCC(=O)c1ccncc1 [PROPYL 4-PYRIDYL KETONE], the Activity [3] is reported as 55% and the Activity [8] is reported as 47%.
For OCc1ccncc1 [PYRIDINE 4-METHANOL], the Activity [3] was 52%.
CC(C)OC(=O)c1ccncc1 [ISOPROPYL ISONICOTINATE] gave an MAD [1] of 1 ×10⁻² microL.
For CCCC(O)c1ccncc1 (centres undefined) [1-(4-pyridyl)-1-butanol], the Activity [3] was 47%.
For CCOC(=O)c1ccnc(Cl)c1, the Activity [1] was “Active”.
CC(C)N(C(=O)c1ccncc1)C(C)C [DI-ISOPROPYL ISONICOTINAMIDE] showed an Activity [5] of 81%.
For O=Cc1ccncc1 [4-FORMYLPYRIDINE], the Activity [7] was 15% and the Activity [9] was “Active”.
OCCc1ccncc1 [4-(2-HYDROXYETHYL)PYRIDINE] was tested, and the Activity [10] was 48%, the Activity [7] was 59% and the Activity [3] was 79%.
COc1ccc(C=O)cc1 [ANISALDEHYDE] was tested, and the Activity [9] was 52%.
N#Cc1ccncc1 [ISONICOTINONITRILE] was tested, and the Activity [5] was 39%.
In the case of CCOC(=O)c1ccncc1 [ETHYL ISONICOTINATE], the MAD (Thrips obscuratus) is reported as 1 ×10⁻³ microL, the MAD [1] is reported as 1 ×10⁻⁴ microL and the “fold change (FC)” value [2] is reported as 14.
CCOC(=O)c1cccnc1 [ETHYL NICOTINATE] was tested, and the MAD (Thrips obscuratus) was 1 ×10⁻⁶ microL.
